Experimental data: paper PMC467089, “Click estradiol dimers with novel aromatic bridging units: synthesis and anticancer evaluation” (Journal of Enzyme Inhibition and Medicinal Chemistry, 2024)
Entries after “also recorded” stand apart in the source; their conditions may differ.

What was measured:
[1] = system: K562-TAX (paclitaxel-resistant variant of K562); assay: MTS cytotoxicity assay, K562-TAX; type: cell-based, human; conditions: Homo sapiens, K562-Tax; MTS assay, 72-h incubation, mean ± SD of 3 independent experiments; read-out: IC50 cytotoxic activity K562-TAX
Procedure, shortened: (§1)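 Overnight-seeded cells → fourfold serial compound dilutions (DMSO) → 72 h, 37 °C, 5% CO2 → MTS added. Duplicates ×3 biological reps.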

[2] = MTS cytotoxicity assay, BJ; type: cell-based; conditions: human, BJ cells (non-tumour skin fibroblasts); MTS assay, 72-h incubation, mean ± SD of 3 independent experiments; read-out: IC50 cytotoxic activity BJ
Procedure, shortened: as §1

[3] = MTS cytotoxicity assay, HUVEC; type: cell-based; conditions: human, HUVEC cells (umbilical vein endothelial cells); MTS assay, 72-h incubation, mean ± SD of 3 independent experiments; read-out: IC50 cytotoxic activity HUVEC
Procedure, shortened: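 Cells seeded overnight, then exposed to fourfold serial dilutions of compounds (DMSO) for 72 h at 37 °C, 5% CO2; viability read by MTS reagent. Technical duplicates, three biological replicates. HCT116p53−/− is the p53-null variant.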

porcine brain tubulin = target: T1, porcine brain tubulin (Sus scrofa, UniProt P02550+P02554); assay: Tubulin polymerisation assay; type: biochemical; conditions: for inhibitory activity against tubulin polymerisation (in words): 10 μmol/L, Vmax relative to DMSO; for IC50: dose-response, mean ± SD of two independent experiments, read-out: IC50 inhibition of tubulin assembly; for inhibition at 10 µM: read-out: Tubulin polymerisation inhibition
T1 construct: purchased Cytoskeleton, Denver, CO; host or cells: porcine brain (tissue-purified)
T1 sequence (P02550 whole entry): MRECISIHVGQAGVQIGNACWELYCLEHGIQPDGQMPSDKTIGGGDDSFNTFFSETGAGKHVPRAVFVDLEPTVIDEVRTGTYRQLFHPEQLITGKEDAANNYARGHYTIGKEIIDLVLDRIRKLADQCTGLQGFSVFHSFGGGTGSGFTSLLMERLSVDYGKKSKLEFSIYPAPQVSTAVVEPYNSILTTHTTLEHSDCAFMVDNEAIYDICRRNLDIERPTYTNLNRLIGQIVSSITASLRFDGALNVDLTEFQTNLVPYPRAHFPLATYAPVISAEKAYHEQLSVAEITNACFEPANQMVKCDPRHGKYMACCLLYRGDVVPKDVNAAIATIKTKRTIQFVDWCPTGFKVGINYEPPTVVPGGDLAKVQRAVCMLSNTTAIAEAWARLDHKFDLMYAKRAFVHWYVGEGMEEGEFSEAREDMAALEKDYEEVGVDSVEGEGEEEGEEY
T1 sequence (P02554 whole entry): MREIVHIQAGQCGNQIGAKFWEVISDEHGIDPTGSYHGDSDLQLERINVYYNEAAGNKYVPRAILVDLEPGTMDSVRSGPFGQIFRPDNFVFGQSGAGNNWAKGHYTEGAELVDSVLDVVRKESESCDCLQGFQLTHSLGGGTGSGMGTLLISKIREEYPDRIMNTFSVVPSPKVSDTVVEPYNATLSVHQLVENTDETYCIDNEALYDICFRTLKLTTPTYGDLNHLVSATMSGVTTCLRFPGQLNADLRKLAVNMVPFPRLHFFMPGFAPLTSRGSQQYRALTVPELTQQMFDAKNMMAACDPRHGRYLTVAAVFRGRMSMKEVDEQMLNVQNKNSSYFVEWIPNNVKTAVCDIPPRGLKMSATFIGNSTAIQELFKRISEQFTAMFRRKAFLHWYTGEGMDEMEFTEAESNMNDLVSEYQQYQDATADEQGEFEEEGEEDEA
Procedure, shortened: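 Test compounds (10 μmol/L) or DMSO vehicle added to >99% pure porcine brain tubulin. Polymerisation read at 37 °C on a plate reader, and Vmax taken from each curve.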

CCRF-CEM lymphoblasts [4] = assay: Cell cycle analysis by flow cytometry (propidium iodide); type: cell-based, human
Procedure, shortened: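 CCRF-CEM cells treated 24 h, then fixed in cold 70% ethanol, permeabilised with 0.25% Triton X-100 and stained with anti-phospho-histone H3 (Ser10). After 50 μg/mL RNase and propidium iodide, analysed by flow cytometry at 488 nm; sub-G1 events counted as non-viable with fragmented DNA.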

CCRF-CEM lymphoblasts [5] = assay: BrDU incorporation analysis (DNA synthesis); type: cell-based, human
Procedure, shortened: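 CCRF-CEM cells exposed to compounds for 24 h, pulse-labelled 30 min before harvest with 10 μM BrDU, ethanol-fixed, HCl-denatured, stained with anti-BrdU/FITC plus propidium iodide and RNase. Flow cytometry (488 nm) gives the percentage of BrDU-positive cells.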

CCRF-CEM lymphoblasts [6] = assay: BrU incorporation analysis (RNA synthesis); type: cell-based, human; conditions: for RNA synthesis, BrU incorporation (in words): 1× and 5×IC50, 24 h, gated remaining live cells
Procedure, shortened: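 CCRF-CEM cells were treated with compounds for 24 h, then pulsed with 1 mM BrU for 30 min and fixed in 1% paraformaldehyde/0.05% NP-40. BrU was detected with a cross-reacting anti-BrdU antibody and FITC secondary, with propidium iodide/RNase counterstain; value is percentage of BrU-positive cells by flow cytometry.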

SMILES | IC50 [1] | IC50 at 72 h [2] | IC50 at 72 h [3] | inhibitory activity against tubulin polymerisation (in words) (porcine brain tubulin) | IC50 (porcine brain tubulin) | inhibition at 10 µM (porcine brain tubulin) | <G1 (sub-G1, fragmented DNA), % of positive cells (CCRF-CEM lymphoblasts [4]; 1×IC50, 24 h) | >G2/M (polyploidy), % of positive cells (CCRF-CEM lymphoblasts [4]; 1×IC50, 24 h) | G0/G1, % of positive cells (CCRF-CEM lymphoblasts [4]; 1×IC50, 24 h) | G2/M, % of positive cells (CCRF-CEM lymphoblasts [4]; 1×IC50, 24 h) | S, % of positive cells (CCRF-CEM lymphoblasts [4]; 1×IC50, 24 h) | <G1 (sub-G1, fragmented DNA), % of positive cells (CCRF-CEM lymphoblasts [4]; 5×IC50, 24 h) | >G2/M (polyploidy), % of positive cells (CCRF-CEM lymphoblasts [4]; 5×IC50, 24 h) | G0/G1, % of positive cells (CCRF-CEM lymphoblasts [4]; 5×IC50, 24 h) | G2/M, % of positive cells (CCRF-CEM lymphoblasts [4]; 5×IC50, 24 h) | S, % of positive cells (CCRF-CEM lymphoblasts [4]; 5×IC50, 24 h) | BrDU, % of positive cells (CCRF-CEM lymphoblasts [5]; 1×IC50, 24 h) | BrDU, % of positive cells (CCRF-CEM lymphoblasts [5]; 5×IC50, 24 h) | BrU, % of positive cells (CCRF-CEM lymphoblasts [6]; 1×IC50, 24 h) | BrU, % of positive cells (CCRF-CEM lymphoblasts [6]; 5×IC50, 24 h) | other results
COc1cc(Cn2cc([C@]3(O)CC[C@H]4[C@@H]5CCc6cc(O)ccc6[C@H]5CC[C@@]43C)nn2)cc(Cn2cc([C@]3(O)CC[C@H]4[C@@H]5CCc6cc(O)ccc6[C@H]5CC[C@@]43C)nn2)c1 [ED3, (17β,17′β)-17,17′-[(5-Methoxybenzene-1,3-diyl)bis(methanediyl-1H-1,2,3-triazole-1,4-diyl)]bisestra-1,3,5(10)-triene-3,17-diol] | > 50000 nM | > 50000 nM | < 12.2 nM | comparable or better inhibitory activity | 2240 ± 1540 nM | 31.6% | 33.51% | 10.23% | 6.68% | 70.65% | 22.67% | 53.18% | 9.8% | 6.89% | 71.67% | 21.44% | 7.81% | 3.23% | 68.66% | 60.00% | RNA synthesis, BrU incorporation (in words) (CCRF-CEM lymphoblasts [6]): high rate of RNA synthesis
C[C@]12CC[C@@H]3c4ccc(O)cc4CC[C@H]3[C@@H]1CC[C@@]2(O)c1cn(Cc2cc(Cn3cc([C@]4(O)CC[C@H]5[C@@H]6CCc7cc(O)ccc7[C@H]6CC[C@@]54C)nn3)cc(OCCO)c2)nn1 [ED5, (17β,17′β)-17,17′-{[5-(2-Hydroxyethoxy)benzene-1,3-diyl]bis(methanediyl-1H-1,2,3-triazole-1,4-diyl)}bisestra-1,3,5(10)-triene-3,17-diol] | > 50000 nM | > 50000 nM | < 12.2 nM | comparable or better inhibitory activity; also recorded: most potent inhibitor of in vitro tubulin polymerisation | 2010 ± 210 nM | 70.2% | 29.35% | 6.16% | 35.53% | 26.90% | 37.57% | 36.87% | 10.73% | 13.42% | 61.48% | 25.09% | 32.15% | 9.59% | 65.14% | 66.40% | RNA synthesis, BrU incorporation (in words) (CCRF-CEM lymphoblasts [6]): high rate of RNA synthesis
C[C@]12CC[C@@H]3c4ccc(O)cc4CC[C@H]3[C@@H]1CC[C@@]2(O)c1cn(Cc2cccc(Cn3cc([C@]4(O)CC[C@H]5[C@@H]6CCc7cc(O)ccc7[C@H]6CC[C@@]54C)nn3)n2)nn1 [ED, reference compound] | > 50000 nM | > 50000 nM | 24.4 ± 17 nM | – | 2180 ± 1800 nM | 55.6% | 11.51% | 11.2% | 33.48% | 25.59% | 40.93% | 22.78% | 23.1% | 2.50% | 59.11% | 38.39% | 19.54% | 15.94% | 34.33% | 15.43% | –
